Data published in patent US9062041B2 (Bayer Intellectual Property GmbH, priority 2011, dated 2015).

What was measured:
Format in all cases: cell-based
[1] = target: EP2 subtype of the human PGE2 receptor (Homo sapiens, UniProt P43116); test: cAMP antagonism test on the human EP2 receptor (HTRF cAMP detection); conditions: hEP2 receptor, read-out: Antagonism hEP2 IC50
Outline: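 Cells expressing human EP2 preincubated 20 min at RT with compound (0.8 nM–16.5 μM), then stimulated 60 min with PGE2 (3× solution 1.5 nM) in PBS-IBMX. After 20 min lysis, cAMP measured by competitive HTRF with cAMP-d2 and Eu cryptate anti-cAMP antibody (665/620 nm ratio).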

[2] = target: EP4 subtype of the human PGE2 receptor (Homo sapiens, UniProt P35408); test: cAMP antagonism test on the human EP4 receptor (HTRF cAMP detection); conditions: selectivity towards hEP4, IC50 measured by cAMP antagonism test
Chain of EP4 subtype of the human PGE2 receptor (P35408 whole entry): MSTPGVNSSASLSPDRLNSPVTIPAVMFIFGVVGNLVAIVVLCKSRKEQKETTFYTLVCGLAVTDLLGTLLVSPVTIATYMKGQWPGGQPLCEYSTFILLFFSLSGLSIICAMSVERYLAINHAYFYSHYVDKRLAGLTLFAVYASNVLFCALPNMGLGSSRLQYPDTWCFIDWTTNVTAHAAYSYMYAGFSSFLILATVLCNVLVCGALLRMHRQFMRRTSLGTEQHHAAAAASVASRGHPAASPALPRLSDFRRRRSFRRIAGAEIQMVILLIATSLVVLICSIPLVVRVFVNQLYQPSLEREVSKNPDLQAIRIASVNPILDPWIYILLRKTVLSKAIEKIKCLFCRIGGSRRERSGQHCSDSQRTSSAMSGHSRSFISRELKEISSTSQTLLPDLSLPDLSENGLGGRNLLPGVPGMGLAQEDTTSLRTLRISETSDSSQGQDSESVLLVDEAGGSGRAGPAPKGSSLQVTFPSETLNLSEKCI
Outline: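 Cells expressing human EP4 preincubated 20 min at RT with compound (0.8 nM–16.5 μM), then stimulated with PGE2 (0.3 nM in 3× solution, with IBMX) 60 min at RT. After lysis, cAMP measured by HTRF competition (665/620 nm ratio); antagonism seen as rise in FRET signal.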

[3] = target: T1, human PGD receptor (Homo sapiens, UniProt Q13258); test: cAMP antagonism test on the human prostaglandin D receptor (HTRF cAMP detection); conditions: selectivity towards hDP, IC50 measured by cAMP antagonism test
T1 sequence (Q13258 1-359): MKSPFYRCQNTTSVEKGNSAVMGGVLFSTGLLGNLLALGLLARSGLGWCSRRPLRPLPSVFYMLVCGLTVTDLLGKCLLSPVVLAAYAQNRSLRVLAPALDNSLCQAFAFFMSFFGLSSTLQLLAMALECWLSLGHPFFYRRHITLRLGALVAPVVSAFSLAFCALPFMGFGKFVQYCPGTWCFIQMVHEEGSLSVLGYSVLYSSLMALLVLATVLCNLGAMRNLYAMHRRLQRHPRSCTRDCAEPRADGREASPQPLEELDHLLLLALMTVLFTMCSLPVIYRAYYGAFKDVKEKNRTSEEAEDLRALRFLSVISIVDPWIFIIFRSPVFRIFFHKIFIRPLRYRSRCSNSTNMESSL
Outline: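 Cells pre-mixed with cAMP-d2 were preincubated with compound (0.8 nM–16.5 μM) for 20 min at RT, then stimulated with 3× PGD2 solution (6 nM, in PBS-IBMX) for 30 min at RT. After lysis (20 min), HTRF read at 665/620 nm; antagonism seen as rise in FRET ratio.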

Chain of EP2 subtype of the human PGE2 receptor (P43116 whole entry): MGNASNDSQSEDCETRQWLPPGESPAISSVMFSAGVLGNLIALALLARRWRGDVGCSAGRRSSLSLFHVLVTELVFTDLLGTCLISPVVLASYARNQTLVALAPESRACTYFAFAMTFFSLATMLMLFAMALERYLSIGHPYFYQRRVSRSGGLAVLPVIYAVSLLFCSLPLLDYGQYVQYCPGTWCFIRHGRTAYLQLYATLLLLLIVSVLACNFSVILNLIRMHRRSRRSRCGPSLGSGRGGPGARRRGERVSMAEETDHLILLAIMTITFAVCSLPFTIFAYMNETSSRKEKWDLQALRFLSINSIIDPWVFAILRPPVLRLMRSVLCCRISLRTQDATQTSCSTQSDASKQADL

**Q.** With `COCCNC(=O)c1ccc2nn(CC3CCN(C(=O)c4ccc(-c5ccc(OC)cc5)cc4)CC3)cc2c1C` [Example 351, 2-({1-[(4′-methoxybiphenyl-4-yl)carbonyl]piperidin-4-yl}methyl)-N-(2-methoxy-ethyl)-4-methyl-2H-indazol-5-carboxamide] as the compound, how does the IC50 [1] read?
**A.** Its IC50 is 6.84 nM.

**Q.** And the “Selectivity hEP2/hEP4” value [2]?
**A.** The value was “xxx (xxx > 100)”.

**Q.** What about the “Selectivity hEP2/hDP” value [3] of the same compound?
**A.** The value was “xxx (xxx > 100)”.

**Q.** Which results are given for `COCCNC(=O)c1ccc2nn(CC3CCN(C(=O)c4nc(-c5ccccc5)no4)CC3)cc2c1C` [Example 352, N-(2-methoxyethyl)-4-methyl-2-({1-[(3-phenyl-1,2,4-oxadiazol-5-yl)carbonyl]-piperidin-4-yl}methyl)-2H-indazol-5-carboxamide]?
**A.** IC50 [1]: 21.7 nM; Selectivity hEP2/hEP4 [2]: xxx (xxx > 100); Selectivity hEP2/hDP [3]: xxx (xxx > 100)

**Q.** Which results are given for `COCCNC(=O)c1ccc2nn(CC3CCN(C(=O)c4ccc(OC5CCOCC5)cc4)CC3)cc2c1C` [Example 353, N-(2-methoxyethyl)-4-methyl-2-({1-[4-(3,4,5,6-tetrahydro-2H-pyran-4-yloxy)-benzoyl]piperidin-4-yl}methyl)-2H-indazol-5-carboxamide]?
**A.** IC50 [1]: 50.2 nM; Selectivity hEP2/hEP4 [2]: xxx (xxx > 100); Selectivity hEP2/hDP [3]: xxx (xxx > 100)

**Q.** `COCCNC(=O)c1ccc2nn(CC3CCN(C(=O)c4ncc(-c5ccccc5)o4)CC3)cc2c1C` [Example 354, N-(2-methoxyethyl)-4-methyl-2-({1-[(5-phenyloxazol-2-yl)carbonyl]piperidin-4-yl}methyl)-2H-indazol-5-carboxamide] was tested. Which IC50 [1] did it give?
**A.** The IC50 was 5.87 nM.

**Q.** What about the “Selectivity hEP2/hEP4” value [2] of the same compound?
**A.** The value was “xxx (xxx > 100)”.

**Q.** What about the “Selectivity hEP2/hDP” value [3] of the same compound?
**A.** The value was “xxx (xxx > 100)”.

**Q.** What does the source list for `COCCNC(=O)c1ccc2nn(CC3CCN(C(=O)c4ccc(Oc5cccc(C(F)(F)F)c5)cc4)CC3)cc2c1C` [Example 355, N-(2-methoxyethyl)-4-methyl-2-[(1-{4-[3-(trifluoromethyl)phenoxy]benzoyl}-piperidin-4-yl)methyl]-2H-indazol-5-carboxamide]?
**A.** IC50 [1]: 5.39 nM; Selectivity hEP2/hEP4 [2]: xxx (xxx > 100); Selectivity hEP2/hDP [3]: xxx (xxx > 100)

**Q.** What does the source list for `COCCNC(=O)c1ccc2nn(CC3CCN(C(=O)c4ccc(Oc5ccc(C#N)cn5)cc4)CC3)cc2c1C` [Example 356, 2-[(1-{4-[(5-cyanopyridin-2-yl)oxy]benzoyl}piperidin-4-yl)methyl]-N-(2-methoxyethyl)-4-methyl-2H-indazol-5-carboxamide]?
**A.** IC50 [1]: 63.6 nM; Selectivity hEP2/hEP4 [2]: xxx (xxx > 100); Selectivity hEP2/hDP [3]: xxx (xxx > 100)

**Q.** For `COCCNC(=O)c1ccc2nn(CC3CCN(C(=O)c4ccc(Oc5ccc(Cl)cn5)cc4)CC3)cc2c1C` [Example 357, 2-[(1-{4-[(5-chloropyridin-2-yl)oxy]benzoyl}piperidin-4-yl)methyl]-N-(2-methoxyethyl)-4-methyl-2H-indazol-5-carboxamide], which IC50 [1] is on record?
**A.** Its IC50 is 7.36 nM.

**Q.** What about the “Selectivity hEP2/hEP4” value [2] of the same compound?
**A.** The value was “xxx (xxx > 100)”.

**Q.** What about the “Selectivity hEP2/hDP” value [3] of the same compound?
**A.** Its value is “xxx (xxx > 100)”.

**Q.** `COCCNC(=O)c1ccc2nn(CC3CCN(C(=O)c4ccc(Oc5ccc(F)cc5F)cc4)CC3)cc2c1C` [Example 358, 2-({1-[4-(2,4-difluorophenoxy)benzoyl]piperidin-4-yl}methyl)-N-(2-methoxy-ethyl)-4-methyl-2H-indazol-5-carboxamide] was tested. Which IC50 [1] did it give?
**A.** The IC50 was 8.01 nM.

**Q.** And the “Selectivity hEP2/hEP4” value [2]?
**A.** Its value is “xxx (xxx > 100)”.

**Q.** What about the “Selectivity hEP2/hDP” value [3] of the same compound?
**A.** Its value is “xxx (xxx > 100)”.

**Q.** Which IC50 [1] does the source give for `COCCNC(=O)c1ccc2nn(CC3CCN(C(=O)c4ccc(Oc5ccc(F)c(F)c5)cc4)CC3)cc2c1C` [Example 359, 2-({1-[4-(3,4-difluorophenoxy)benzoyl]piperidin-4-yl}methyl)-N-(2-methoxy-ethyl)-4-methyl-2H-indazol-5-carboxamide] here?
**A.** The IC50 was 6.99 nM.

**Q.** And the “Selectivity hEP2/hEP4” value [2]?
**A.** The value was “xxx (xxx > 100)”.

**Q.** What about the “Selectivity hEP2/hDP” value [3] of the same compound?
**A.** The value was “xxx (xxx > 100)”.

**Q.** Which results are given for `COCCNC(=O)c1ccc2nn(CC3CCN(C(=O)c4ccc(-c5ccc(C(F)(F)F)cc5)cc4)CC3)cc2c1C` [Example 360, N-(2-methoxyethyl)-4-methyl-2-[(1-{[4′-(trifluoromethyl)biphenyl-4-yl]-carbonyl}piperidin-4-yl)methyl]-2H-indazol-5-carboxamide]?
**A.** IC50 [1]: 6.27 nM; Selectivity hEP2/hEP4 [2]: xxx (xxx > 100); Selectivity hEP2/hDP [3]: xxx (xxx > 100)

**Q.** For `COCCNC(=O)c1ccc2nn(CC3CCN(C(=O)c4ccc(Oc5cccc(F)c5)cc4)CC3)cc2c1C` [Example 361, 2-({1-[4-(3-fluorophenoxy)benzoyl]piperidin-4-yl}methyl)-N-(2-methoxyethyl)-4-methyl-2H-indazol-5-carboxamide], which IC50 [1] is on record?
**A.** Its IC50 is 5.11 nM.

**Q.** What about the “Selectivity hEP2/hEP4” value [2] of the same compound?
**A.** Its value is “xxx (xxx > 100)”.

**Q.** And the “Selectivity hEP2/hDP” value [3]?
**A.** Its value is “xxx (xxx > 100)”.

**Q.** How did the IC50 [1] turn out when `COCCNC(=O)c1ccc2nn(CC3CCN(C(=O)c4ccc(OC(C)C)cc4F)CC3)cc2c1C` [Example 362, 2-{[1-(2-fluoro-4-isopropoxybenzoyl)piperidin-4-yl]methyl}-N-(2-methoxy-ethyl)-4-methyl-2H-indazol-5-carboxamide] was run?
**A.** The IC50 was 15.1 nM.

**Q.** What about the “Selectivity hEP2/hEP4” value [2] of the same compound?
**A.** Its value is “xxx (xxx > 100)”.

**Q.** What about the “Selectivity hEP2/hDP” value [3] of the same compound?
**A.** The value was “xxx (xxx > 100)”.

**Q.** Which IC50 [1] does the source give for `COCCNC(=O)c1ccc2nn(CC3CCN(C(=O)c4ccc(-c5ccc(C)c(C)c5)cc4F)CC3)cc2c1C` [Example 363, 2-({1-[(3-fluoro-3′,4′-dimethylbiphenyl-4-yl)carbonyl]piperidin-4-yl}methyl)-N-(2-methoxyethyl)-4-methyl-2H-indazol-5-carboxamide] here?
**A.** Its IC50 is 5.48 nM.

**Q.** What about the “Selectivity hEP2/hEP4” value [2] of the same compound?
**A.** Its value is “xxx (xxx > 100)”.

**Q.** What about the “Selectivity hEP2/hDP” value [3] of the same compound?
**A.** The value was “xxx (xxx > 100)”.

**Q.** What does the source list for `COCCNC(=O)c1ccc2nn(CC3CCN(C(=O)c4ccc(-c5ccc(OC)cc5F)cc4F)CC3)cc2c1C` [Example 364, 2-({1-[(2′,3-difluoro-4′-methoxybiphenyl-4-yl)carbonyl]piperidin-4-yl}methyl)-N-(2-methoxyethyl)-4-methyl-2H-indazol-5-carboxamide]?
**A.** IC50 [1]: 6.61 nM; Selectivity hEP2/hEP4 [2]: xxx (xxx > 100); Selectivity hEP2/hDP [3]: xxx (xxx > 100)

**Q.** How did the IC50 [1] turn out when `COCCNC(=O)c1ccc2nn(CC3CCN(C(=O)c4ccc(OC(F)F)cc4)CC3)cc2c1C` [Example 365, 2-({1-[4-(difluoromethoxy)benzoyl]piperidin-4-yl}methyl)-N-(2-methoxyethyl)-4-methyl-2H-indazol-5-carboxamide] was run?
**A.** Its IC50 is 5.3 nM.

**Q.** And the “Selectivity hEP2/hEP4” value [2]?
**A.** The value was “xxx (xxx > 100)”.

**Q.** What about the “Selectivity hEP2/hDP” value [3] of the same compound?
**A.** Its value is “xxx (xxx > 100)”.

**Q.** How did the IC50 [1] turn out when `COCCNC(=O)c1ccc2nn(CC3CCN(C(=O)c4ccc(Oc5ccccc5F)cc4)CC3)cc2c1C` [Example 366, 2-({1-[4-(2-fluorophenoxy)benzoyl]piperidin-4-yl}methyl)-N-(2-methoxyethyl)-4-methyl-2H-indazol-5-carboxamide] was run?
**A.** Its IC50 is 18.9 nM.

**Q.** What about the “Selectivity hEP2/hEP4” value [2] of the same compound?
**A.** Its value is “xxx (xxx > 100)”.

**Q.** What about the “Selectivity hEP2/hDP” value [3] of the same compound?
**A.** Its value is “xxx (xxx > 100)”.

**Q.** How did the IC50 [1] turn out when `COCCNC(=O)c1ccc2nn(CC3CCN(C(=O)c4ccc(-c5ccc(C#N)cc5C)cc4)CC3)cc2c1C` [Example 367, 2-({1-[(4′-cyano-2′-methylbiphenyl-4-yl)carbonyl]piperidin-4-yl}methyl)-N-(2-methoxyethyl)-4-methyl-2H-indazol-5-carboxamide] was run?
**A.** Its IC50 is 5.84 nM.

**Q.** What about the “Selectivity hEP2/hEP4” value [2] of the same compound?
**A.** The value was “xxx (xxx > 100)”.

**Q.** And the “Selectivity hEP2/hDP” value [3]?
**A.** The value was “xxx (xxx > 100)”.

**Q.** How did the IC50 [1] turn out when `COCCNC(=O)c1ccc2nn(CC3CCN(C(=O)c4ccc(-c5ccc(Cl)cn5)cc4)CC3)cc2c1C` [Example 368, 2-({1-[4-(5-chloropyridin-2-yl)benzoyl]piperidin-4-yl}methyl)-N-(2-methoxy-ethyl)-4-methyl-2H-indazol-5-carboxamide] was run?
**A.** The IC50 was 12 nM.

**Q.** And the “Selectivity hEP2/hEP4” value [2]?
**A.** The value was “xxx (xxx > 100)”.

**Q.** What about the “Selectivity hEP2/hDP” value [3] of the same compound?
**A.** Its value is “xxx (xxx > 100)”.
